Data: paper PMC11012124, “Synthesis of Novel Triazine-Based Chalcones and 8,9-dihydro-7H-pyrimido[4,5-b][1,4]diazepines as Potential Leads in the Search of Anticancer, Antibacterial and Antifungal Agents” (International Journal of Molecular Sciences, 2024)
Values after ≈ are worked out from the molar mass of the structure shown.

Tests used:
[1] = tested on: LOX IMVI; conditions: 48 h; for GI50: LOX IMVI
[2] = tested on: SR; conditions: 48 h
[3] = tested on: Galleria mellonella; test: Toxicity in the Galleria mellonella model; conditions: G. mellonella larvae, at the higher doses
Protocol: G mellonella larvae were cultivated in the laboratory and healthy, beige larvae weighing 150–200 mg, were selected for toxicity assays.

[4] = tested on: MOLT-4; conditions: MOLT-4, 48 h
[5] = tested on: U251; conditions: U251, 48 h
[6] = tested on: Trichophyton rubrum (CCC 134-2000); test: Antifungal broth microdilution (CLSI); format: cell-based; conditions: Tr: Trichophyton rubrum
Outline: (§1)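 Broth microdilution followed CLSI M27-A3 for yeasts and the filamentous-fungi reference method, in 200 μL final volume with DMSO-matched growth controls. Plates were incubated in the dark and humid at 30 °C for a time suited to each fungus; testing was done in triplicate.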

[7] = tested on: Microsporum gypseum (CCC 115); test: Antifungal broth microdilution (CLSI); format: cell-based; conditions: Nannizzia gypsea; Mg: Microsporum gypseum
Outline: as §1

[8] = tested on: A. niger (ATCC 9029); test: Antifungal broth microdilution (CLSI); format: cell-based; conditions: ATCC9029; Ani: Aspergillus niger
Outline: as §1

[9] = tested on: Candida albicans (ATCC 10231); test: Antifungal broth microdilution (CLSI); format: cell-based; conditions: ATCC10231; Ca: Candida albicans
Outline: as §1

[10] = tested on: A. fumigatus (ATCC 26934); test: Antifungal broth microdilution (CLSI); format: cell-based; conditions: ATCC26934; Afu: Aspergillus fumigatus
Outline: as §1

[11] = tested on: Trichophyton mentagrophytes (CCC 202-2000); test: Antifungal broth microdilution (CLSI); format: cell-based; conditions: Tm: Trichophyton mentagrophytes
Outline: as §1

[12] = tested on: SF-539; conditions: human, 48 h
[13] = tested on: human red blood cells (huRBC); test: Hemolytic activity, spectrophotometric; format: cell-based; conditions: 200 μg/mL, 24 h, 37 °C
[14] = tested on: CCRF-CEM; conditions: 48 h
[15] = tested on: K-562; conditions: K-562, 48 h
[16] = tested on: S. aureus ATCC 43300; test: Antibacterial MIC, microdilution; format: cell-based; conditions: Staphylococcus aureus; S. aureus ATCC 43300 (MRSA)

Row | Compound | MIC [6] | MIC [7] | MIC [8] | MIC [9] | MIC [10] | MIC [11] | further results
1 | COc1cc(/C=C/C(=O)c2cc(OC)c(OC)c(OC)c2)ccc1Oc1nc(NCCO)nc(N2CCOCC2)n1 [20d] |  |  |  |  |  |  | GI50 [1]: 640 nM; GI50 [2]: 780 nM
2 | COc1cc(/C=C/C(=O)c2ccccc2)ccc1Oc1nc(Nc2ccc(F)cc2)nc(N(C)C)n1 [21a] |  |  |  |  |  |  | mortality [3]: ≤ 25%
3 | COc1cc(/C=C/C(=O)c2cc(OC)c(OC)c(OC)c2)ccc1Oc1nc(Nc2ccc(F)cc2)nc(N(C)C)n1 [21d] | 125 µg/mL (≈ 217 µM) | > 250 µg/mL | 125 µg/mL (≈ 217 µM) | > 250 µg/mL | > 250 µg/mL | > 250 µg/mL | mortality [3]: ≤ 25%; GI50 [1]: 480 nM; GI50 [4]: 470 nM; GI50 [5]: 500 nM
4 | CN(C)c1nc(NCCNS(=O)(=O)c2ccc(C(=O)/C=C/c3ccc(Cl)cc3)cc2)nc(N2CCOCC2)n1 [23e] | 125 µg/mL (≈ 218 µM) | > 250 µg/mL | > 250 µg/mL | 250 µg/mL (≈ 437 µM) | > 250 µg/mL | > 250 µg/mL | 
5 | COc1ccc(/C=C/C(=O)c2ccc(S(=O)(=O)NCCNc3nc(Nc4ccc(F)cc4)nc(N(C)C)n3)cc2)cc1 [24c] | 125 µg/mL (≈ 211 µM) | > 250 µg/mL | > 250 µg/mL | > 250 µg/mL | > 250 µg/mL | > 250 µg/mL | 
6 | COc1cc(/C=C/C(=O)c2ccc(S(=O)(=O)NCCNc3nc(Nc4ccc(F)cc4)nc(N(C)C)n3)cc2)cc(OC)c1OC [24d] |  |  |  |  |  |  | CC50 ([1]; human): 5930 nM; CC50 [12]: 5620 nM
7 | CN(C)c1nc(NCCNS(=O)(=O)c2ccc(C(=O)/C=C/c3ccc(Cl)cc3)cc2)nc(Nc2ccc(F)cc2)n1 [24e] | > 250 µg/mL | > 250 µg/mL | > 250 µg/mL | > 250 µg/mL | > 250 µg/mL | 125 µg/mL (≈ 210 µM) | 
8 | COc1cc(C2CC(c3ccc(Cl)cc3)=Nc3c(N)nc(N)nc3N2)ccc1Oc1nc(Nc2ccc(F)cc2)nc(N(C)C)n1 (stereo not drawn) [29e] | 62.5 µg/mL (≈ 97.3 µM) | > 250 µg/mL | > 250 µg/mL | > 250 µg/mL | > 250 µg/mL | > 250 µg/mL | 
9 | CN(C)c1nc(NCCNS(=O)(=O)c2ccc(C3=Nc4c(N)nc(N)nc4NC(c4ccc(C(F)(F)F)cc4)C3)cc2)nc(N2CCOCC2)n1 (stereo not drawn) [30g] | 250 µg/mL (≈ 344 µM) | > 250 µg/mL | > 250 µg/mL | 125 µg/mL (≈ 172 µM) | > 250 µg/mL | > 250 µg/mL | mortality [3]: ≤ 25%
10 | CN(C)c1nc(NCCNS(=O)(=O)c2ccc(C3=Nc4c(N)nc(N)nc4NC(c4ccc(C(F)(F)F)cc4)C3)cc2)nc(Nc2ccc(F)cc2)n1 (stereo not drawn) [31g] | 250 µg/mL (≈ 333 µM) | > 250 µg/mL | > 250 µg/mL | > 250 µg/mL | 62.5 µg/mL (≈ 83.1 µM) | 62.5 µg/mL (≈ 83.1 µM) | 
11 | Cc1ccc(C2CC(c3ccc(Nc4nc(NCCO)nc(Nc5ccc(Cl)cc5)n4)cc3)=Nc3c(N)nc(N)nc3N2)cc1 (stereo not drawn) [33b] |  |  |  |  |  |  | % Hemolysis [13]: 100%
12 | Nc1nc(N)c2c(n1)NC(c1ccc(F)cc1)CC(c1ccc(Nc3nc(NCCO)nc(Nc4ccc(Cl)cc4)n3)cc1)=N2 (stereo not drawn) [33f] |  |  |  |  |  |  | GI50 [14]: 750 nM; GI50 [15]: 490 nM; GI50 [2]: 670 nM; GI50 [4]: 530 nM
13 | Nc1nc(N)c2c(n1)NC(c1ccc(C(F)(F)F)cc1)CC(c1ccc(Nc3nc(NCCO)nc(Nc4ccc(Cl)cc4)n3)cc1)=N2 (stereo not drawn) [33g] |  |  |  |  |  |  | MIC [16]: 31.2 µg/mL (≈ 46.2 µM); GI50 [15]: 640 nM; GI50 [4]: 890 nM
